Laboratory results published in PubChem BioAssay (NCI).
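48-hour exposure; five concentrations; linearly interpolated endpoints. TGI denotes the concentration required for complete inhibition of growth.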

Assays:
Test in all cases: NCI-60 cell line screen, 48 h
LXFL 529 NSCLC = tested on: LXFL 529 NSCLC
A498 renal = tested on: A498 renal
SNB-75 CNS = tested on: SNB-75 CNS
HL-60(TB) leukemia = tested on: HL-60(TB) leukemia
DMS 114 small cell lung = tested on: DMS 114 small cell lung
NCI-H522 lung = tested on: NCI-H522 lung
SF-268 CNS = tested on: SF-268 CNS
RPMI-8226 leukemia = tested on: RPMI-8226 leukemia
HT29 colon = tested on: HT29 colon
SNB-78 CNS = tested on: SNB-78 CNS
COLO 205 colon = tested on: COLO 205 colon
HCC-2998 colon = tested on: HCC-2998 colon
HOP-62 NSCLC = tested on: HOP-62 NSCLC
KM20L2 colon = tested on: KM20L2 colon
SF-539 CNS = tested on: SF-539 CNS
M19-MEL melanoma = tested on: M19-MEL melanoma
K-562 leukemia = tested on: K-562 leukemia
OVCAR-3 ovarian = tested on: OVCAR-3 ovarian
UACC-257 melanoma = tested on: UACC-257 melanoma
NCI-H23 lung = tested on: NCI-H23 lung
OVCAR-4 ovarian = tested on: OVCAR-4 ovarian
UO-31 renal = tested on: UO-31 renal
UACC-62 melanoma = tested on: UACC-62 melanoma
HOP-92 NSCLC = tested on: HOP-92 NSCLC
OVCAR-5 ovarian = tested on: OVCAR-5 ovarian
SR leukemia = tested on: SR leukemia
M14 melanoma = tested on: M14 melanoma
SK-MEL-28 melanoma = tested on: SK-MEL-28 melanoma
SF-295 CNS = tested on: SF-295 CNS
SK-OV-3 ovarian = tested on: SK-OV-3 ovarian
SK-MEL-2 melanoma = tested on: SK-MEL-2 melanoma
KM12 colon = tested on: KM12 colon
NCI-H460 lung = tested on: NCI-H460 lung
ACHN renal = tested on: ACHN renal
CCRF-CEM leukemia = tested on: CCRF-CEM leukemia
IGROV1 ovarian = tested on: IGROV1 ovarian
U251 CNS = tested on: U251 CNS
MALME-3M melanoma = tested on: MALME-3M melanoma
MOLT-4 leukemia = tested on: MOLT-4 leukemia
SK-MEL-5 melanoma = tested on: SK-MEL-5 melanoma
T-47D breast = tested on: T-47D breast
BT-549 breast = tested on: BT-549 breast
PC-3 prostate = tested on: PC-3 prostate
MDA-N = tested on: MDA-N
TK-10 renal = tested on: TK-10 renal
NCI-H226 lung = tested on: NCI-H226 lung
NCI/ADR-RES ovarian = tested on: NCI/ADR-RES ovarian
786-0 renal = tested on: 786-0 renal
RXF 393 renal = tested on: RXF 393 renal
CAKI-1 renal = tested on: CAKI-1 renal
HCT-116 colon = tested on: HCT-116 colon
SNB-19 CNS = tested on: SNB-19 CNS
SW-620 colon = tested on: SW-620 colon
MDA-MB-231 breast = tested on: MDA-MB-231 breast
MCF7 breast = tested on: MCF7 breast
SN12C renal = tested on: SN12C renal
HCT-15 colon = tested on: HCT-15 colon
LOX IMVI melanoma = tested on: LOX IMVI melanoma
MDA-MB-435 = tested on: MDA-MB-435
OVCAR-8 ovarian = tested on: OVCAR-8 ovarian
DU-145 prostate = tested on: DU-145 prostate
A549 NSCLC = tested on: A549 NSCLC
EKVX NSCLC = tested on: EKVX NSCLC
HS 578T breast = tested on: HS 578T breast

CCN(CC)CCCC(C)Nc1cc(-c2ccccc2)nc2cc(OC)ccc12 (stereo unspecified)
TGI (LXFL 529 NSCLC): 19.9 µM
TGI (A498 renal): 14 µM
TGI (SNB-75 CNS): 25.9 µM
TGI (HL-60(TB) leukemia): 7.04 µM
TGI (DMS 114 small cell lung): 21.8 µM
TGI (NCI-H522 lung): 19.9 µM
TGI (SF-268 CNS): 32.9 µM
TGI (RPMI-8226 leukemia): 5.77 µM
TGI (HT29 colon): 4.83 µM
TGI (SNB-78 CNS): 18 µM
TGI (COLO 205 colon): 13.4 µM
TGI (HCC-2998 colon): 2.41 µM
TGI (HOP-62 NSCLC): 19.4 µM
TGI (KM20L2 colon): 7.89 µM
TGI (SF-539 CNS): 17.7 µM
TGI (M19-MEL melanoma): 27.5 µM
TGI (K-562 leukemia): 5.7 µM
TGI (OVCAR-3 ovarian): 34.5 µM
TGI (UACC-257 melanoma): 35.6 µM
TGI (NCI-H23 lung): 32.1 µM
TGI (OVCAR-4 ovarian): 18.7 µM
TGI (UO-31 renal): 9.22 µM
TGI (UACC-62 melanoma): 36.6 µM
TGI (HOP-92 NSCLC): 11.1 µM
TGI (OVCAR-5 ovarian): 7.97 µM
TGI (SR leukemia): 12.1 µM
TGI (M14 melanoma): 3.52 µM
TGI (SK-MEL-28 melanoma): 20.5 µM
TGI (SF-295 CNS): 21.1 µM
TGI (SK-OV-3 ovarian): 37.5 µM
TGI (SK-MEL-2 melanoma): 26.3 µM
TGI (KM12 colon): 22.3 µM
TGI (NCI-H460 lung): 14.7 µM
TGI (ACHN renal): 29.8 µM
TGI (CCRF-CEM leukemia): 11.4 µM
TGI (IGROV1 ovarian): 41.9 µM
TGI (U251 CNS): 15.8 µM
TGI (MALME-3M melanoma): 22.4 µM
TGI (MOLT-4 leukemia): 8.24 µM

COc1ccc(OC)c(C[P+](c2ccccc2)(c2ccccc2)c2ccccc2)c1
TGI (SK-MEL-5 melanoma): 3.32 µM
TGI (A498 renal): 23.5 µM
TGI (SNB-75 CNS): 22.2 µM
TGI (HL-60(TB) leukemia): 3.29 µM
TGI (T-47D breast): > 90 µM
TGI (NCI-H522 lung): > 39.4 µM
TGI (SF-268 CNS): > 100 µM
TGI (BT-549 breast): 29.1 µM
TGI (PC-3 prostate): 8.56 µM
TGI (RPMI-8226 leukemia): 6.39 µM
TGI (HT29 colon): 11.8 µM
TGI (MDA-N): 29.8 µM
TGI (TK-10 renal): > 92.6 µM
TGI (COLO 205 colon): 2.76 µM
TGI (NCI-H226 lung): > 61.4 µM
TGI (HCC-2998 colon): 26.2 µM
TGI (NCI/ADR-RES ovarian): > 100 µM
TGI (HOP-62 NSCLC): 22.2 µM
TGI (786-0 renal): > 100 µM
TGI (SF-539 CNS): 39.2 µM
TGI (K-562 leukemia): 5.91 µM
TGI (RXF 393 renal): 25.8 µM
TGI (CAKI-1 renal): 56 µM
TGI (HCT-116 colon): 14.4 µM
TGI (SNB-19 CNS): > 75 µM
TGI (SW-620 colon): > 100 µM
TGI (OVCAR-3 ovarian): > 37.3 µM
TGI (MDA-MB-231 breast): 34.9 µM
TGI (UACC-257 melanoma): 14.4 µM
TGI (NCI-H23 lung): 11.8 µM
TGI (OVCAR-4 ovarian): > 48.8 µM
TGI (MCF7 breast): > 40.7 µM
TGI (SN12C renal): > 100 µM
TGI (UO-31 renal): 79.4 µM
TGI (HCT-15 colon): > 100 µM
TGI (LOX IMVI melanoma): 13.2 µM
TGI (UACC-62 melanoma): 12.8 µM
TGI (HOP-92 NSCLC): 4.39 µM
TGI (MDA-MB-435): 13.7 µM
TGI (OVCAR-5 ovarian): > 100 µM
TGI (SR leukemia): 6.07 µM
TGI (OVCAR-8 ovarian): > 65.3 µM
TGI (DU-145 prostate): > 79.4 µM
TGI (M14 melanoma): 18.3 µM
TGI (SK-MEL-28 melanoma): 18.8 µM
TGI (SF-295 CNS): > 75.9 µM
TGI (SK-OV-3 ovarian): 11 µM
TGI (A549 NSCLC): > 56.4 µM
TGI (EKVX NSCLC): > 94.6 µM
TGI (KM12 colon): 14.1 µM
TGI (NCI-H460 lung): > 100 µM
TGI (ACHN renal): > 64.2 µM
TGI (CCRF-CEM leukemia): > 26.8 µM
TGI (IGROV1 ovarian): 21.7 µM
TGI (HS 578T breast): 8.45 µM
TGI (MALME-3M melanoma): 23.3 µM
TGI (MOLT-4 leukemia): > 35.3 µM
